{"source": "patent US20230181614A1", "about": "“ADMINISTRATION OF CITICOLINE TO IMPROVE COGNITIVE PERFORMANCE, ATTENTIONAL PERFORMANCE, AND MOTOR FUNCTION” (KYOWA HAKKO BIO CO., LTD., priority 2014, published 2023)", "key": {"[1]": {"tested_on": "Healthy subjects, ages 13-18", "assay": "Positive and Negative Affect Scale for Children (PANAS-C)", "assay_type": "in vivo, human", "description": "Study participants were screened by telephone prior to study enrollment. Healthy subjects, ages 13-18, with no significant medical conditions and no history of co-morbid psychiatric disorder, current Axis I or II diagnosis, or previous participation in a pharmacotherapeutic trial, were selected. Use of any psychotropic medication or any previous head injury resulting in loss of consciousness for 5 or more minutes were used as exclusion criteria. While no participant met criteria for a neuropsychiatric disorder at enrollment, clinical assessments were still completed throughout the study to evaluate changes in mood state. In addition, self-reports of sleep habits, lifestyle, and exercise routines were also administered at baseline as well as at each study visit to assess changes in health habits during study participation. Following the completion of Visit 1 assessment, participants were given their 28-day supply of citicoline (250 mg or 500 mg) or placebo, which was randomly assigned. They were instructed to take one capsule a day every day for the next 28 days. Visit 2 occurred fourteen days after Visit 1. At Visit 2, the remaining study pills were counted and participant dosage calendars were checked to ensure compliance with the protocol. Additional neuropsychological measures and clinical assessments were administered during this visit. Participants returned for Visit 3 fourteen days later, on the 28th day of their study participation. The pill bottle and the dosage calendar were collected from each participant. Urine and blood were again obtained. Participants also participated in similar clinical and neuropsychological testing and clinical measures that were given during visit 1. The […] is a self-report questionnaire on which participants rate to what extent they are currently experiencing a variety of positive and negative emotions such as “excited” and “mad.” The PANAS was administered during each of the three visits to assess participant affect prior to taking the study drug as well as after taking the study drug over a period of 28 days."}, "[2]": {"tested_on": "Healthy subjects, ages 13-18", "assay": "Continuous Performance Test (CPT)", "assay_type": "in vivo, human", "conditions": "for CPT Commissions V1, Mean / CPT Omissions V1, Mean / CPT Hit Reaction Time V1, Mean: Visit 1", "description": "Study participants were screened by telephone prior to study enrollment. Healthy subjects, ages 13-18, with no significant medical conditions and no history of co-morbid psychiatric disorder, current Axis I or II diagnosis, or previous participation in a pharmacotherapeutic trial, were selected. Use of any psychotropic medication or any previous head injury resulting in loss of consciousness for 5 or more minutes were used as exclusion criteria. While no participant met criteria for a neuropsychiatric disorder at enrollment, clinical assessments were still completed throughout the study to evaluate changes in mood state. In addition, self-reports of sleep habits, lifestyle, and exercise routines were also administered at baseline as well as at each study visit to assess changes in health habits during study participation. Following the completion of Visit 1 assessment, participants were given their 28-day supply of citicoline (250 mg or 500 mg) or placebo, which was randomly assigned. They were instructed to take one capsule a day every day for the next 28 days. Visit 2 occurred fourteen days after Visit 1. At Visit 2, the remaining study pills were counted and participant dosage calendars were checked to ensure compliance with the protocol. Additional neuropsychological measures and clinical assessments were administered during this visit. Participants returned for Visit 3 fourteen days later, on the 28th day of their study participation. The pill bottle and the dosage calendar were collected from each participant. Urine and blood were again obtained. Participants also participated in similar clinical and neuropsychological testing and clinical measures that were given during visit 1. The CPT is a test of sustained attention that has been adapted for computerized administration. The test requires participants to attend vigilantly to a series of target and distracter stimuli for a 14-minute duration. […] The CPT was administered at all three visits."}, "[3]": {"conditions": "250 mg/day group, Visit difference score"}, "[4]": {"conditions": "250 mg/day group, Visit 3, in ms (unit assumed)"}, "[5]": {"conditions": "250 mg/day group, visit difference score V3-V1"}, "[6]": {"conditions": "500 mg/day group, Visit difference score"}}}
{"smiles": "C[N+](C)(C)CCOP(=O)(O)OP(=O)([O-])OC[C@H]1O[C@@H](n2ccc(N)nc2=O)[C@H](O)[C@@H]1O", "note": "[citicoline, Cytidine 5′-diphosphocholine]", "values": [{"measurement": "PANAS-C Negative Score, Mean", "setting": "[1]; 250 mg/day, V1 (baseline)", "value": 23.15}, {"measurement": "PANAS-C Positive Score, Mean", "setting": "[1]; 250 mg/day, V1 (baseline)", "value": 45.74}, {"measurement": "PANAS-C Negative Score, Mean", "setting": "[1]; 250 mg/day, V3 (day 28)", "value": 19.81}, {"measurement": "PANAS-C Positive Score, Mean", "setting": "[1]; 250 mg/day, V3 (day 28)", "value": 41.93}, {"measurement": "PANAS-C Negative Score, Mean", "setting": "[1]; 250 mg/day, V3-V1", "value": -3.33}, {"measurement": "PANAS-C Positive Score, Mean", "setting": "[1]; 250 mg/day, V3-V1", "value": -3.81}, {"measurement": "PANAS-C Negative Score, Mean", "setting": "[1]; 500 mg/day, V1 (baseline)", "value": 21.55}, {"measurement": "PANAS-C Positive Score, Mean", "setting": "[1]; 500 mg/day, V1 (baseline)", "value": 43.30}, {"measurement": "PANAS-C Negative Score, Mean", "setting": "[1]; 500 mg/day, V3 (day 28)", "value": 18.00}, {"measurement": "PANAS-C Positive Score, Mean", "setting": "[1]; 500 mg/day, V3 (day 28)", "value": 41.78}, {"measurement": "PANAS-C Negative Score, Mean", "setting": "[1]; 500 mg/day, V3-V1", "value": -3.55}, {"measurement": "PANAS-C Positive Score, Mean", "setting": "[1]; 500 mg/day, V3-V1", "value": -1.52}, {"measurement": "PANAS-C positive emotional attributes, between groups", "setting": "[1]; Placebo vs 500 mg/day, visit 3, p=0.39", "value": "No significant effect"}, {"measurement": "CPT Commissions V1, Mean", "setting": "[2]; 250 mg/day group", "value": 18.22}, {"measurement": "CPT Omissions V1, Mean", "setting": "[2]; 250 mg/day group", "value": 9.59}, {"measurement": "CPT Hit Reaction Time V1, Mean", "setting": "[2]; 250 mg/day group, in ms (unit assumed)", "value": 362.62}, {"measurement": "V3-V1 CPT Commissions, Mean", "setting": "[2]; [3]", "value": -1.26}, {"measurement": "V3-V1 CPT Omissions, Mean", "setting": "[2]; [3]", "value": 4.93}, {"measurement": "V3-V1 CPT Hit Reaction Time, Mean", "setting": "[2]; 250 mg/day group, Visit difference score, in ms (unit assumed)", "value": 34.57}, {"measurement": "CPT Commissions V3, Mean", "setting": "[2]; 250 mg/day group, Visit 3", "value": 16.96}, {"measurement": "CPT Omissions V3, Mean", "setting": "[2]; 250 mg/day group, Visit 3", "value": 14.52}, {"measurement": "V3 CPT Commissions (Mean)", "setting": "[2]; 250 mg/day group, Visit 3", "value": 16.96}, {"measurement": "V3 CPT Omissions (Mean)", "setting": "[2]; 250 mg/day group, Visit 3", "value": 14.52}, {"measurement": "CPT Hit Reaction Time V3, Mean", "setting": "[2]; [4]", "value": 397.19}, {"measurement": "V3 CPT Hit Reaction Time (Mean)", "setting": "[2]; [4]", "value": 397.19}, {"measurement": "V3-V1 CPT Commissions, Mean", "setting": "[2]; [5]", "value": -1.26}, {"measurement": "V3-V1 CPT Omissions, Mean", "setting": "[2]; [5]", "value": 4.93}, {"measurement": "V3-V1 CPT Hit Reaction Time, Mean", "setting": "[2]; 250 mg/day group, visit difference score V3-V1, in ms (unit assumed)", "value": 34.57}, {"measurement": "CPT Commissions V1, Mean", "setting": "[2]; 500 mg/day group", "value": 18.79}, {"measurement": "CPT Omissions V1, Mean", "setting": "[2]; 500 mg/day group", "value": 8.42}, {"measurement": "CPT Hit Reaction Time V1, Mean", "setting": "[2]; 500 mg/day group, in ms (unit assumed)", "value": 363.58}, {"measurement": "CPT Hit Reaction Time V3, Mean", "setting": "[2]; 500 mg/day group, Visit 3, in ms (unit assumed)", "value": 391.30}, {"measurement": "V3-V1 CPT Commissions, Mean", "setting": "[2]; [6]", "value": -3.88}, {"measurement": "V3-V1 CPT Omissions, Mean", "setting": "[2]; [6]", "value": 5.33}, {"measurement": "V3-V1 CPT Hit Reaction Time, Mean", "setting": "[2]; 500 mg/day group, Visit difference score, in ms (unit assumed)", "value": 27.71}, {"measurement": "CPT Commissions V3, Mean", "setting": "[2]; 500 mg/day group, Visit 3", "value": 14.92}, {"measurement": "CPT Omissions V3, Mean", "setting": "[2]; 500 mg/day group, Visit 3", "value": 13.75}]}
